ChEMBL document CHEMBL6078643, “Palladium-Mediated Bioorthogonal System for Prodrug Activation of N-Benzylbenzamide-Containing Tubulin Polymerization Inhibitors for the Treatment of Solid Tumors” (J Med Chem, 2024)
The source made the active and inactive calls. The rule behind the calls is not given here.

Assays:
HepG2 [1] = assay: Antiproliferative activity against human HepG2 cells assessed as reduction in cell viability incubated for 72 hrs by CCK-8 assay; type: functional, cell-based; conditions: HepG2, 72 h
H22 [2] = assay: Antiproliferative activity against mouse H22 cells assessed as reduction in cell viability incubated for 72 hrs by CCK-8 assay; type: functional, cell-based; conditions: H22, 72 h
H22 [3] = assay: Select factor, ratio of test compound IC50 to 5-fluoro-N-(3-hydroxy-4-methoxybenzyl)-2-morpholinobenzamide IC50 for antiproliferative activity against mouse H22 cells assessed as reduction in cell viability incubated for 72 hrs by CCK-8 assay; type: functional
K562 [4] = assay: Cytotoxicity against human K562 cells assessed as parent drug 5-fluoro-N-(3-hydroxy-4-methoxybenzyl)-2-morpholinobenzamide mediated decrease in cell viability at 100 nM in presence of palladium resins incubated for 72 hrs by CCK-8 assay; type: functional, cell-based
K562 [5] = assay: Induction of cell cycle arrest in human K562 cells assessed as accumulation of cells at G1 phase at 80 nM incubated for 72 hrs in presence of palladium resins by PI staining based flow cytometric analysis ( Rvb = 77.46 %); type: functional
K562 [6] = assay: Induction of cell cycle arrest in human K562 cells assessed as accumulation of cells at S phase at 80 nM incubated for 72 hrs in presence of palladium resins by PI staining based flow cytometric analysis ( Rvb = 14.04 %); type: functional
K562 [7] = assay: Induction of cell cycle arrest in human K562 cells assessed as accumulation of cells at G2 phase at 80 nM incubated for 72 hrs in presence of palladium resins by PI staining based flow cytometric analysis ( Rvb = 8.5 %); type: functional
K562 [8] = assay: Induction of cell cycle arrest in human K562 cells assessed as accumulation of cells at G1 phase at 80 nM incubated for 72 hrs by PI staining based flow cytometric analysis ( Rvb = 77.46 %); type: functional
K562 [9] = assay: Induction of cell cycle arrest in human K562 cells assessed as accumulation of cells at G2 phase at 80 nM incubated for 72 hrs by PI staining based flow cytometric analysis ( Rvb = 8.5 %); type: functional
K562 [10] = assay: Induction of cell cycle arrest in human K562 cells assessed as accumulation of cells at G2/M phase at 80 nM incubated for 72 hrs by PI staining based flow cytometric analysis ( Rvb = 8.5 %); type: functional
K562 [11] = assay: Induction of apoptosis in human K562 cells assessed as nucleus fragmentation at 80 nM incubated for 72 hrs in presence of palladium resins by Hoechst 33342 staining based fluorescent microscopic analysis; type: functional, cell-based
K562 [12] = assay: Induction of apoptosis in human K562 cells assessed as viable cells at 80 nM incubated for 72 hrs by Annexin V-APC staining based flow cytometric analysis (reference value: 94.21%); type: functional; conditions: read-out: Activity
K562 [13] = assay: Induction of apoptosis in human K562 cells assessed as necrotic cells at 80 nM incubated for 72 hrs by Annexin V-APC staining based flow cytometric analysis (reference value: 1.65%); type: functional
K562 [14] = assay: Induction of apoptosis in human K562 cells assessed as viable cells at 80 nM incubated for 72 hrs in presence of palladium resins by Annexin V-APC staining based flow cytometric analysis (reference value: 94.21%); type: functional; conditions: read-out: Activity
K562 [15] = assay: Induction of apoptosis in human K562 cells assessed as necrotic cells at 80 nM incubated for 72 hrs in presence of palladium resins by Annexin V-APC staining based flow cytometric analysis (reference value: 1.65%); type: functional
HepG2 [16] = assay: Antiproliferative activity against human HepG2 cells at 100 nM incubated for 72 hrs in presence of palladium resins by CCK-8 assay; type: functional, cell-based
Mitochondrial membrane [17] = assay: Induction of mitochondrial membrane potential loss in human K562 cells assessed as increase in green fluorescence intensity at 80 nM incubated for 72 hrs in presence of palladium resins by JC-1 staining based flow cytometric analysis (reference value: 6.74%); type: cell membranes
Mitochondrial membrane [18] = assay: Induction of mitochondrial membrane potential loss in human K562 cells assessed as green fluorescence intensity incubated for 72 hrs by JC-1 staining based flow cytometric analysis (reference value: 6.74%); type: cell membranes
HUVEC [19] = assay: Antivascular activity against HUVEC cells assessed as inhibition of cell migration at 80 nM incubated for 24 hrs in presence of palladium resins by phase contrast microscopic analysis; type: functional, cell-based; conditions: Homo sapiens
HUVEC [20] = assay: Antivascular activity against HUVEC cells assessed as inhibition of capillary tube formation at 80 nM incubated for 6 hrs in presence of palladium resins by inverted microscopic analysis; type: functional, cell-based; conditions: Homo sapiens
Tubulin (Homo sapiens) [21] = molecular target: T1, Tubulin (Homo sapiens) (UniProt P68371+Q9H4B7+P0DPH7+P68366+Q13509+Q71U36+P04350+Q3ZCM7+P07437+P68363+Q9BQE3+Q6PEY2+Q13885+Q9BVA1+Q9BUF5); assay: Inhibition of tubulin polymerization in human K562 cells assessed as decrease in alpha tubulin expression at 80 nM incubated for 24 hrs in presence of palladium resins by Western blotting analysis; type: cell-based
Tubulin (Homo sapiens) [22] = molecular target: T1, Tubulin (Homo sapiens); assay: Inhibition of tubulin polymerization in human HepG2 cells assessed as decrease in beta tubulin expression at 80 nM incubated for 24 hrs in presence of palladium resins by Western blotting analysis; type: cell-based
HepG2 [23] = assay: Antitumor activity against human HepG2 cells xenografted in Balb/c mouse assessed as tumor growth inhibition at 20 mg/kg, iv administered daily in presence of palladium resins for 14 days relative to control; type: functional; conditions: HepG2, 336 h, time 14 day
HepG2 [24] = assay: Antitumor activity against human HepG2 cells xenografted in Balb/c mouse assessed as cell necrosis at 20 mg/kg, iv administered daily for 14 days in presence of palladium resins by TUNEL staining based analysis; type: functional, organism-based; conditions: time 14.0 day
[25] = Toxicity in Balb/c mouse xenografted with human HepG2 cells assessed as effect on heart at 20 mg/kg, iv administered daily in presence of palladium resins for 14 days by H and E staining based analysis; type: organism-based; conditions: in vivo, 336 h, time 14 day
[26] = Toxicity in Balb/c mouse xenografted with human HepG2 cells assessed as effect on liver at 20 mg/kg, iv administered daily in presence of palladium resins for 14 days by H and E staining based analysis; type: organism-based; conditions: in vivo, 336 h, time 14 day
[27] = Toxicity in Balb/c mouse xenografted with human HepG2 cells assessed as effect on kidney at 20 mg/kg, iv administered daily in presence of palladium resins for 14 days by H and E staining based analysis; type: organism-based; conditions: in vivo, 336 h, time 14 day
Tubulin (Homo sapiens) [28] = molecular target: T1, Tubulin (Homo sapiens); assay: In vivo inhibition of tubulin polymerization in human HepG2 cells xenografted in Balb/c mouse assessed as decrease in beta tubulin expression at 20 mg/kg, iv administered daily for 14 days in presence of palladium resins incubated for 24 hrs by Western blot analysis; type: functional, organism-based; conditions: time 14.0 day

C#CCOc1cc(CNC(=O)c2cc(F)ccc2N2CCOCC2)ccc1OC
IC50 (HepG2 [1]): 1310 nM
IC50 (H22 [2]): 805 nM
Ratio IC50 (H22 [3]): 39.6
Activity (K562 [4]): Active
Activity (K562 [5]): 58.6%
Activity (K562 [6]): 29.11%
Activity (K562 [7]): 12.3%
Activity (K562 [8]): 67.39%
Activity (K562 [9]): 8.97%
Activity (K562 [10]): 8.97%
Activity (K562 [11]): Active
viability at 0.08 µM (K562 [12]): 92.6%
Activity (K562 [13]): 1.26%
viability at 0.08 µM (K562 [14]): 45.4%
Activity (K562 [15]): 2.95%
Activity (HepG2 [16]): Active
Activity (Mitochondrial membrane [17]): 54.2%
Activity (Mitochondrial membrane [18]): 8.08%
Activity (HUVEC [19]): Active
Activity (HUVEC [20]): Active
inhibition (Tubulin (Homo sapiens) [21]): Active
inhibition (Tubulin (Homo sapiens) [22]): Active
inhibition in vivo at 20 mg/kg (HepG2 [23]): 63.2%
Activity (HepG2 [24]): Active
Activity [25]: Non-toxic
Activity [26]: Non-toxic
Activity [27]: Non-toxic
Activity (Tubulin (Homo sapiens) [28]): Active
